AC50 data for 30 compounds are collected here from patent US12606541B2, “PPARg modulators and methods of use” (Eisai R&D Management Co., Ltd., priority 2020, dated 2026).

In the first assay the target is T1, His6-TEV-PPARγ-(234-505) (Homo sapiens, UniProt P37231).
T1 construct: The His6-TEV-PPARγ-(234-505) protein for assay was expressed and purified; TEV cleavage site (N); made in house
T1 sequence (P37231 234-505): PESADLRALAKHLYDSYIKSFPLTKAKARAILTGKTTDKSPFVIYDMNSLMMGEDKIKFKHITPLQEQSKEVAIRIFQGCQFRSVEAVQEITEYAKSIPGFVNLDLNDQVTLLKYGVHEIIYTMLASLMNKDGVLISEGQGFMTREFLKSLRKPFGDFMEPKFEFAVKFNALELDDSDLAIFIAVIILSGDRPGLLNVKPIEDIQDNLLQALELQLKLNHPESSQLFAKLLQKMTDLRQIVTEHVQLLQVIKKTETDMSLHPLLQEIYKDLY
Description: TR-FRET Assay to Measure Co-R Peptide Recruitment to PPARγ. The format is biochemical. The note with it: Co-R peptide (SMRT-ID2) recruitment; top final concentration 20 μM; read-out: TR-FRET i-Ag; AC50. The procedure:
TR-FRET Assay to Measure Co—R Peptide Recruitment to PPARγ
The 2× detection solution contained anti-6×His-Terbium antibody (CisBio) and FITC labeled Co—R peptide (SMRT-ID2 from New England Peptide) at final concentrations of 5 and 200 nM respectively.
In these assay plates, the positive control in column 24 contained 500 nM (final) T0070907 and the negative control in column 23 contained an identical volume of DMSO. Then, 5 μL of 2+ protein working stock or controls were added to the plate and incubated for 20 minutes at room temperature. Reagents additions were performed with either a Combi (Thermo) or Mantis (Formulatory) pipetting device. The incubation was followed by addition of 5 μL of the 2× detection solution. Plates were covered, centrifuged, and incubated for an additional hour. The TR-FRET data was recorded with an Envision plate reader (Perkin Elmer), using settings recommended by Thermo Fisher. The TR-FRET signal of the positive and negative control's recruitment of FITC-Co—R peptide was used to normalize the TR-FRET signal to percent response and to determine the assay Z prime. Experiments were performed in triplicate and analyzed in GraphPad Prism 7.
(Time-resolved FRET reads energy transfer from a long-lived donor to a nearby acceptor.)
Take `COc1cc(-c2cc(C(=O)N3CCC(C(=O)N[C@H]4CC[C@@H](C)CC4)CC3)n[nH]2)ccn1` [Example 107, 1-(5-(2-methoxypyridin-4-yl)-1H-pyrazole-3-carbonyl)-N-((1s,4s)-4-methylcyclohexyl)piperidine-4-carboxamide]: the AC50 worked out at 342 nM.

`COc1cc(-c2cc(C(=O)N3C(C)CC(C(=O)NCc4cccc(Cl)c4)CC3C)n[nH]2)c(Cl)cn1` (mixture of isomers) [Example 274, 1-(5-(5-chloro-2-methoxypyridin-4-yl)-1H-pyrazole-3-carbonyl)-N-(3-chlorobenzyl)-2,6-dimethylpiperidine-4-carboxamide]: the AC50 was 20 nM.

Still in this assay, the particulars now being: Co-R peptide recruitment to PPARγ; read-out: TR-FRET AC50.
In the case of `COc1cc(-c2cc(C(=O)N3CC[C@@H](C(=O)NC4CC[C@H](C(F)(F)F)N(C)C4)CC34CC4)n[nH]2)c(F)cn1` (mixture of isomers) [(7R)-4-[5-(5-fluoro-2-methoxypyridin-4-yl)-1H-pyrazole-3-carbonyl]-N-[(3RS,6R)-1-methyl-6-(trifluoromethyl)piperidin-3-yl]-4-azaspiro[2.5]octane-7-carboxamide], the AC50 was over 1000 nM.

Take `CS(=O)(=O)CCN1CCN(C(=O)C2CCN(C(=O)c3cc(-c4ccncc4)[nH]n3)CC2)CC1` [1-(2-methanesulfonylethyl)-4-{1-[5-(pyridin-4-yl)-1H-pyrazole-3-carbonyl]piperidine-4-carbonyl}piperazine]: the AC50 was over 1000 nM.

Consider `O=C(c1cc(-c2ccncc2)[nH]n1)N1CCC(C(=O)N2CCC23COC3)CC1` [1-{1-[5-(pyridin-4-yl)-1H-pyrazole-3-carbonyl]piperidine-4-carbonyl}-6-oxa-1-azaspiro[3.3]heptane], for which the AC50 was over 1000 nM.

On to `COc1cc(Cl)ccc1CNC(=O)C1CCN(C(=O)c2cc(-c3ccncc3)[nH]n2)CC1` [N-[(4-chloro-2-methoxyphenyl)methyl]-1-[5-(pyridin-4-yl)-1H-pyrazole-3-carbonyl]piperidine-4-carboxamide], for which the AC50 is over 1000 nM.

Regarding `O=C(NCCCN1CCOCC1)C1CCN(C(=O)c2cc(-c3ccncc3)[nH]n2)CC1` [N-[3-(morpholin-4-yl)propyl]-1-[5-(pyridin-4-yl)-1H-pyrazole-3-carbonyl]piperidine-4-carboxamide], the AC50 is over 1000 nM.

`COc1cc(-c2cc(C(=O)N3CCC(C(=O)N[C@H]4CCCc5cccnc54)CC3)n[nH]2)c(Cl)cn1` [1-[5-(5-chloro-2-methoxypyridin-4-yl)-1H-pyrazole-3-carbonyl]-N-[(8S)-5,6,7,8-tetrahydroquinolin-8-yl]piperidine-4-carboxamide]: the AC50 is over 1000 nM.

As to `COc1cc(-c2cc(C(=O)N3CCC(C(=O)NCc4ccc(C)nc4)CC3)n[nH]2)c(Cl)cn1` [1-[5-(5-chloro-2-methoxypyridin-4-yl)-1H-pyrazole-3-carbonyl]-N-[(6-methylpyridin-3-yl)methyl]piperidine-4-carboxamide], the AC50 was over 1000 nM.

As for `CC1CCC(NC(=O)C2CCN(C(=O)c3cc(-c4ccnc(N5CCCC5)c4)[nH]n3)CC2)CC1` (stereo not drawn) [N-(4-methylcyclohexyl)-1-{5-[2-(pyrrolidin-1-yl)pyridin-4-yl]-1H-pyrazole-3-carbonyl}piperidine-4-carboxamide], the AC50 was over 1000 nM.

For `C[C@@H](NC(=O)C1CCN(C(=O)c2cc(-c3ccncc3)[nH]n2)CC1)c1ccc(C(C)(C)C)cc1` [N-[(1R)-1-(4-tert-butylphenyl)ethyl]-1-[5-(pyridin-4-yl)-1H-pyrazole-3-carbonyl]piperidine-4-carboxamide], the AC50 was over 1000 nM.

As for `Cc1nc(CNC(=O)C2CCN(C(=O)c3cc(-c4ccncc4)[nH]n3)CC2)sc1C` [N-[(4,5-dimethyl-1,3-thiazol-2-yl)methyl]-1-[5-(pyridin-4-yl)-1H-pyrazole-3-carbonyl]piperidine-4-carboxamide], the AC50 was over 1000 nM.

Take `Cc1ccc([C@H](C)NC(=O)C2CCN(C(=O)c3cc(-c4ccncc4)[nH]n3)CC2)cc1` [N-[(1S)-1-(4-methylphenyl)ethyl]-1-[5-(pyridin-4-yl)-1H-pyrazole-3-carbonyl]piperidine-4-carboxamide]: the AC50 was over 1000 nM.

On to `COc1cc(-c2cc(C(=O)N3C[C@H]4CC[C@@H]3CC4C(=O)NCc3cccc(Cl)c3)n[nH]2)c(F)cn1` (relative stereo) [(1R,4S,5R*)—N-[(3-chlorophenyl)methyl]-2-[5-(5-fluoro-2-methoxypyridin-4-yl)-1H-pyrazole-3-carbonyl]-2-azabicyclo[2.2.2]octane-5-carboxamide], for which the AC50 is over 1000 nM.

As for `O=C(NCc1cc(Cl)ccc1Cl)C1CCN(C(=O)c2cc(-c3cccnc3)[nH]n2)CC1` [N-[(2,5-dichlorophenyl)methyl]-1-[5-(pyridin-3-yl)-1H-pyrazole-3-carbonyl]piperidine-4-carboxamide], the AC50 is over 1000 nM.

For the compound `COc1cc(-c2cc(C(=O)N3CCC(C(=O)N[C@@H]4CCOc5c(F)ccc(F)c54)CC3)n[nH]2)c(Cl)cn1` [1-[5-(5-chloro-2-methoxypyridin-4-yl)-1H-pyrazole-3-carbonyl]-N-[(4R)-5,8-difluoro-3,4-dihydro-2H-1-benzopyran-4-yl]piperidine-4-carboxamide], the AC50 is over 1000 nM.

Consider `COc1cc(-c2cc(C(=O)N3CC4CCC(C3)C4C(=O)NCc3cccc(Cl)c3)n[nH]2)c(F)cn1` (stereo not drawn) [N-[(3-chlorophenyl)methyl]-3-[5-(5-fluoro-2-methoxypyridin-4-yl)-1H-pyrazole-3-carbonyl]-3-azabicyclo[3.2.1]octane-8-carboxamide], for which the AC50 was over 1000 nM.

On to `COc1cc(-c2cc(C(=O)N3CCC(C(=O)NC(C)c4ncccn4)CC3)n[nH]2)c(Cl)cn1` (stereo not drawn) [1-[5-(5-chloro-2-methoxypyridin-4-yl)-1H-pyrazole-3-carbonyl]-N-[1-(pyrimidin-2-yl)ethyl]piperidine-4-carboxamide], for which the AC50 is over 1000 nM.

Consider `COc1cc(-c2cc(C(=O)N3CC[C@H](CNC(=O)[C@H]4C[C@@H](C)N[C@@H](C)C4)CC34CC4)n[nH]2)c(F)cn1`, for which the AC50 was over 1000 nM.

Regarding `COc1cc(-c2cc(C(=O)N3CCC(C(=O)NC(C)C4COC4)CC3)n[nH]2)c(Cl)cn1` (stereo not drawn) [1-[5-(5-chloro-2-methoxypyridin-4-yl)-1H-pyrazole-3-carbonyl]-N-[1-(oxetan-3-yl)ethyl]piperidine-4-carboxamide], the AC50 is over 1000 nM.

`COc1cc(-c2cc(C(=O)N3CCC(C(=O)NC4(c5ccccc5)CC4)CC3)n[nH]2)c(F)cn1` [1-[5-(5-fluoro-2-methoxypyridin-4-yl)-1H-pyrazole-3-carbonyl]-N-(1-phenylcyclopropyl)piperidine-4-carboxamide]: the AC50 is over 1000 nM.

`CC(C)Oc1cc(-c2cc(C(=O)N3CCC(C(=O)N[C@H]4CC[C@@](O)(C(F)(F)F)CC4)CC34CC4)n[nH]2)c(F)cn1` (single isomer, unassigned): the AC50 is over 1000 nM.

In the case of `Cc1cc(CNC(=O)C2CCN(C(=O)c3cc(-c4ccncc4)[nH]n3)CC2)ccn1` [N-[(2-methylpyridin-4-yl)methyl]-1-[5-(pyridin-4-yl)-1H-pyrazole-3-carbonyl]piperidine-4-carboxamide], the AC50 was over 1000 nM.

With `COc1cc(-c2cc(C(=O)N3CCC(C(=O)N[C@H]4CC[C@@](C)(O)CC4)CC3)n[nH]2)c(Cl)cn1`, the AC50 is over 1000 nM.

On to `COc1cc(-c2cc(C(=O)N3CCC(C(=O)NCc4n[nH]c(=O)c5ccccc45)CC3)n[nH]2)c(Cl)cn1` [1-[5-(5-chloro-2-methoxypyridin-4-yl)-1H-pyrazole-3-carbonyl]-N-[(4-oxo-3,4-dihydrophthalazin-1-yl)methyl]piperidine-4-carboxamide], for which the AC50 was over 1000 nM.

As to `COc1cc(-c2cc(C(=O)N3CCC(C(=O)NCc4ccncn4)CC3)n[nH]2)c(Cl)cn1` [1-[5-(5-chloro-2-methoxypyridin-4-yl)-1H-pyrazole-3-carbonyl]-N-[(pyrimidin-4-yl)methyl]piperidine-4-carboxamide], the AC50 was over 1000 nM.

For `COc1cc(-c2cc(C(=O)N3CCC(C(=O)NCC4(C)CCOC4)CC3)n[nH]2)c(Cl)cn1` (stereo not drawn) [1-[5-(5-chloro-2-methoxypyridin-4-yl)-1H-pyrazole-3-carbonyl]-N-[(3-methyloxolan-3-yl)methyl]piperidine-4-carboxamide], the AC50 was over 1000 nM.

Take `CN(C)CCCNC(=O)C1CCN(C(=O)c2cc(-c3ccncc3)[nH]n2)CC1` [N-[3-(dimethylamino)propyl]-1-[5-(pyridin-4-yl)-1H-pyrazole-3-carbonyl]piperidine-4-carboxamide]: the AC50 is over 1000 nM.

Take `Cc1ccc(NC(=O)C2CCN(C(=O)c3cc(-c4ccncc4)[nH]n3)CC2)cc1Cl` [N-(3-chloro-4-methylphenyl)-1-[5-(pyridin-4-yl)-1H-pyrazole-3-carbonyl]piperidine-4-carboxamide]: the AC50 was over 1000 nM.

For the compound `O=C(NC1CCCCC1)C1CCN(C(=O)c2cc(-c3ccncc3)[nH]n2)CC1` [N-cyclohexyl-1-[5-(pyridin-4-yl)-1H-pyrazole-3-carbonyl]piperidine-4-carboxamide], the AC50 is over 1000 nM.
